From patent US10973906B2, “Therapeutic peptides and vaccines” (priority 2005, dated 2021)
Where a SMILES comes first, the peptide text is derived from it.

Columns and labels:
[1] = target: T1, CCR5 (Homo sapiens, UniProt P51681); assay: biochemical; type: binding
T1 construct: expressed in transfected cells; host or cells: ChfTh-CCR5 expressing cells (so in the source)
Method: (§1) The antiviral assays are described in detail in the prior art (Ruff et al., 2001, Antiviral Res, 52, 63-75), which is hereby incorporated by reference, and will be here described only briefly.
(§2) We prepared a novel FITC-labeled tracer from soluble gp120 proteins (25 μg/ml) using a Fluorescent Protein labeling kit (Roche Diagnostics GmBh). Binding assays were performed in binding buffer containing 50mM HEPES (Gibco), pH=7.4, 5 mM MgCl2, 1 mM CaCl2.6H20 (Sigma), 5% BSA (Sigma) and 0.1% NaN3, final volume 100 μl. Binding was carried out for 1 h at 37° C. in 96-well filter plates (Millipore) using several CCR5 expressing lines, as indicated. Unbound labeled proteins were removed by rapid vacuum filtration and washing using a 96-well plate manifold. Filters were counted with a fluorescent plate reader (Hewlett Packard) at 495/530 nm. Non-specific binding was determined in the absence of sCD4 and was subtracted from the gp120-FITC binding in presence of 100 nM sCD4 (total binding).

[2] = target: T1, CCR5; type: binding
Method: as §1, §2
These studies are illustrated in FIG. 4. Total specific binding was defined as the difference in binding of FITIC-gp120 with or without added sCD4 (100 nM).
Data shown (panels A-C) are the mean and […] of three experiments, each with triplicate determinations. Analyses were performed by PRISM.

T1 sequence (P51681 whole entry): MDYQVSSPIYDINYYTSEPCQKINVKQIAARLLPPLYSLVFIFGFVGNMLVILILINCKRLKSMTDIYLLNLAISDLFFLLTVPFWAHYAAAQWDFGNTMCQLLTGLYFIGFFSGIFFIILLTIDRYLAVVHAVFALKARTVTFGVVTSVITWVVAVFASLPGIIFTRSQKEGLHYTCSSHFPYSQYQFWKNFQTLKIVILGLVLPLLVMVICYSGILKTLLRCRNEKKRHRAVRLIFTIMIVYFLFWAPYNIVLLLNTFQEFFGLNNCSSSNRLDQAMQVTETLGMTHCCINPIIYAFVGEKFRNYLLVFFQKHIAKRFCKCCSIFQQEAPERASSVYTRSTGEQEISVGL

| Molecule | EC50 [1] [pM] | inhibition of binding of gp120 proteins Bal and CM235 ([2]; 10 nM) | inhibition of binding of gp120BaL/sCD4 to CCR5 ([2]; gp120BaL/sCD4, Cf2Th/synR5 cells) |
| --- | --- | --- | --- |
| N=C(N)NCCC[C@H](NC(=O)[C@H](Cc1ccc(O)cc1)NC(=O)[C@H](CCCNC(=N)N)NC(=O)[C@H](CC(N)=O)NC(=O)[C@@H](N)CC(N)=O)C(=O)O [NNRYR] (H-NNRYR-OH) | 200 |  |  |
| N=C(N)NCCC[C@H](NC(=O)[C@H](Cc1ccc(O)cc1)NC(=O)[C@H](CCC(=O)O)NC(=O)[C@H](CO)NC(=O)[C@@H](N)CC(N)=O)C(=O)O [NSEYR] (H-NSEYR-OH) | 80 |  |  |
| NC(=O)C[C@H](NC(=O)[C@H](CO)NC(=O)[C@@H](N)CC(N)=O)C(=O)N[C@@H](Cc1ccc(O)cc1)C(=O)N[C@@H](CO)C(=O)O [NSNYS] (H-NSNYS-OH) | 500 |  |  |
| N=C(N)NCCC[C@H](NC(=O)[C@H](Cc1ccc(O)cc1)NC(=O)[C@H](CO)NC(=O)[C@H](CO)NC(=O)[C@@H](N)CC(N)=O)C(=O)O [NSSYR] (H-NSSYR-OH) | 40 |  |  |
| C[C@@H](O)[C@H](NC(=O)[C@H](Cc1ccc(O)cc1)NC(=O)[C@H](CO)NC(=O)[C@H](CO)NC(=O)[C@@H](N)CC(N)=O)C(=O)O [NSSYT] (H-NSSYT-OH) | 200 |  |  |
| C[C@@H](O)[C@H](NC(=O)[C@@H](N)CC(N)=O)C(=O)N[C@@H](CO)C(=O)N[C@@H](Cc1ccc(O)cc1)C(=O)N[C@@H](CCCNC(=N)N)C(=O)O [NTSYR] (H-NTSYR-OH) | 100 |  |  |
| N=C(N)NCCC[C@H](NC(=O)[C@H](Cc1ccc(O)cc1)NC(=O)[C@H](CCC(=O)O)NC(=O)[C@H](CO)NC(=O)[C@@H](N)CO)C(=O)O [SSEYR] (H-SSEYR-OH) | 300 |  |  |
| CC[C@H](C)[C@H](NC(=O)[C@@H](N)[C@@H](C)O)C(=O)N[C@@H](CO)C(=O)N[C@@H](Cc1ccc(O)cc1)C(=O)N[C@@H](CCCNC(=N)N)C(=O)O [TISYR] (H-TISYR-OH) | 400 |  |  |
| C[C@@H](O)[C@H](N)C(=O)N[C@@H](CO)C(=O)N[C@@H](CC(N)=O)C(=O)N[C@@H](Cc1ccc(O)cc1)C(=O)N[C@@H](CO)C(=O)O [TSNYS] (H-TSNYS-OH) | 200 |  |  |
| C[C@@H](O)[C@H](N)C(=O)N[C@H](C(=O)N[C@@H](CO)C(=O)N[C@@H](Cc1ccc(O)cc1)C(=O)N[C@@H](CCCNC(=N)N)C(=O)O)[C@@H](C)O [TTSYR] (H-TTSYR-OH) | 100 |  |  |
| C[C@@H](O)[C@H](N)C(=O)N[C@H](C(=O)N[C@@H](CO)C(=O)N[C@@H](Cc1ccc(O)cc1)C(=O)N[C@H](C(=O)O)[C@@H](C)O)[C@@H](C)O [TTSYT] (H-TTSYT-OH) | 50 |  |  |
| N=C(N)NCCC[C@H](NC(=O)[C@H](Cc1ccc(O)cc1)NC(=O)[C@H](CO)NC(=O)[C@H](CO)NC(=O)[C@@H](N)Cc1ccc(O)cc1)C(=O)O [YSSYR] (H-YSSYR-OH) | 600 |  |  |
| MIP-1β: CCR5 selective chemokine ligand (protein) APMGSDPPTACCFSYTARKLPRNFVVDYYETSSLCSQPAVVFQTKRSKQVCADPSESWVQEYVYDLELN |  | inhibited | completely inhibited |
